Laboratory results as given in patent US20190166835A1, “Fungal Trisaccharide Ester Compounds and Use Thereof in Preparing Agents for Preventing and Controlling Plant Fungal Diseases” (SOUTH CHINA BOTANICAL GARDEN, CHINESE ACADEMY OF SCIENCES, priority 2017, published 2019).

Key:
Rhizoctonia solani = assay: agar diffusion test, in vitro inhibitory activity; assay type: cell-based; details: 500 μg per 6 mm filter paper, PDA, 28° C., 72 or 96 hours
Description: (§1) Experiment of in vitro inhibitory activities of the trisaccharide ester compounds 1 to 5 obtained in embodiment 2 against common plant pathogenic fungi of twelve genus.
(§2) The fungi used in the experiments include: 1) Alternaria solani (causing early blight of tomatoes), 2) Botryospuaeria berengeriana (causing ring rot of apples), 3) Botrytis cinerea (causing grey mould of tomatoes), 4) Colletotrichum gloeosporioides (causing anthracnose of mangos), 5) Curvularia lunata (which will infect bananas), 6) Fusarium oxysporium (causing fusarium wilt of bananas and watermelons), 7) Geotrichum citri-aurantii (causing sour rot of citrus), 8) Helminthosporium maydis (causing southern corn leaf blight), 9) Penicillium italicum (causing blue mould of citrus), 10) Peronophythora litchii (which will infect litchi), 11) Rhizoctonia solani (causing sheath blight of rice), and 12) Ustilaginoidea virens (causing false smut of rice).
(§3) The antifungal activities of the compounds 1 to 5 were determined by the agar diffusion test. The fungi were activated and respectively seeded onto petri dishes containing PDA solid culture medium, and spread uniformly with T-shaped spreaders. Each compound was dissolved in methanol to give a 50 mg/mL solution. 10 μL of the solution was then added dropwise onto a filter paper (with a diameter of 6 mm) and let dry in the clean bench such that each filter paper contained 500 μg of the compound eventually. The filter papers were then pressed to the pertri dishes mentioned above and left to incubate in dark at 28° C. for 72 or 96 hours, and then the inhibition widths were measured (a inhibition width refers to an average diameter of the zones of inhibition), wherein filter papers containing a same volume of methanol were used as negative controls.

Curvularia lunata = assay: agar diffusion test, in vitro inhibitory activity; assay type: cell-based; details: 500 μg per 6 mm filter paper, PDA, 28° C., 72 or 96 hours
Description: as §1, §2, §3

Alternaria solani = assay: agar diffusion test, in vitro inhibitory activity; assay type: cell-based; details: 500 μg per 6 mm filter paper, PDA, 28° C., 72 or 96 hours
Description: as §1, §2, §3

Fusarium oxysporium = assay: agar diffusion test, in vitro inhibitory activity; assay type: cell-based; details: 500 μg per 6 mm filter paper, PDA, 28° C., 72 or 96 hours
Description: as §1, §2, §3

[1] = system: Botryospuaeria berengeriana; assay: agar diffusion test, in vitro inhibitory activity; assay type: cell-based; details: 500 μg per 6 mm filter paper, PDA, 28° C., 72 or 96 hours
Description: as §1, §2, §3

[2] = system: Colletotrichum gloeosporioides; assay: agar diffusion test, in vitro inhibitory activity; assay type: cell-based; details: 500 μg per 6 mm filter paper, PDA, 28° C., 72 or 96 hours
Description: as §1, §2, §3

Penicillium italicum = assay: agar diffusion test, in vitro inhibitory activity; assay type: cell-based; details: 500 μg per 6 mm filter paper, PDA, 28° C., 72 or 96 hours
Description: as §1, §2, §3

[3] = system: Geotrichum citri-aurantii; assay: agar diffusion test, in vitro inhibitory activity; assay type: cell-based; details: 500 μg per 6 mm filter paper, PDA, 28° C., 72 or 96 hours
Description: as §1, §2, §3

Helminthosporium maydis = assay: agar diffusion test, in vitro inhibitory activity; assay type: cell-based; details: 500 μg per 6 mm filter paper, PDA, 28° C., 72 or 96 hours
Description: as §1, §2, §3

Ustilaginoidea virens = assay: agar diffusion test, in vitro inhibitory activity; assay type: cell-based; details: 500 μg per 6 mm filter paper, PDA, 28° C., 72 or 96 hours
Description: as §1, §2, §3

Botrytis cinerea = assay: agar diffusion test, in vitro inhibitory activity; assay type: cell-based; details: 500 μg per 6 mm filter paper, PDA, 28° C., 72 or 96 hours
Description: as §1, §2, §3

Peronophythora litchii = assay: agar diffusion test, in vitro inhibitory activity; assay type: cell-based; details: 500 μg per 6 mm filter paper, PDA, 28° C., 72 or 96 hours
Description: as §1, §2, §3

[4] = system: pathogenic fungi in the postharvest storage of citrus fruits; assay: preservation of citrus in postharvest storage (infection index); assay type: in vivo, citrus reticulata blanco cv.shiyueju; details: soaked 5 minutes, stored at 25° C. for 15 days
Procedure: Experiment of the trisaccharide ester extract obtained in embodiment 2 in the preservation of citrus in postharvest storage Samples for the experiment: the trisaccharide ester extract (containing the compounds 1 to 4, with a mass ratio of about 60:35:4:1) obtained in embodiment 2 was dissolved in a small volume of ethanol and diluted with water to give treating solutions (200, 400 and 600 mg/L). The citrus fruits were soaked in the treating solutions for 5 minutes and left to dry. The fruits were then put in plastic baskets (the plastic baskets were surface-sterilized with 75% ethanol and left to dry in advance), sealed in polyethylene bags with a thickness of 0.02 mm, and stored at 25° C. for 15 days. The fruits were observed and their infection indexes were recorded. Calculation of the infection index: infection index=Σ(infection level×amount of fruits of the level)/([…]×total amount of fruits)×100%; infection level: 0 refers to “no obvious infection”, 1 refers to “slight infection”, 2 refers to “infection area smaller than or equal to ¼ of fruit surface”; 3 refers to “infection area larger than ¼ and smaller than ½ of fruit surface”, and 4 refers to “infection area larger than or equal to ½ of fruit surface”. Three replicates were set for each treating solution, and 60 fruits for each replicate. Fruits for the experiments: citrus reticulata blanco cv.shiyueju, harvested from Conghua Orchard.

SMILES: CCC(C)CCCCCCC(=O)O[C@@H]1C(CO[C@H]2OC(CO)[C@H](O)[C@H](O)C2O)O[C@H](O[C@H]2OC(CO)[C@@H](O)[C@H](O)C2O)C(OC(=O)CCC(C)CC)[C@H]1OC(=O)C(C)CC (stereo partly drawn) [Compound 1, 6-O-β-L-mannosyl-3-O-(2-methylbutyryl)-4-O-(8-methyldecanoyl)-2-O-(4-methylhexanoyl)trehalose]
- Zone of inhibition (Rhizoctonia solani): 18 mm
- Zone of inhibition (Curvularia lunata): 12 mm
- Zone of inhibition (Alternaria solani): 12 mm
- Zone of inhibition (Fusarium oxysporium): 10 mm
- Zone of inhibition [1]: 16 mm
- Zone of inhibition [2]: 12 mm
- Zone of inhibition (Penicillium italicum): 20 mm
- Zone of inhibition [3]: 17 mm
- Zone of inhibition (Helminthosporium maydis): 22 mm
- Zone of inhibition (Ustilaginoidea virens): 22 mm
- Zone of inhibition (Botrytis cinerea): 15 mm
- Zone of inhibition (Peronophythora litchii): 13 mm

SMILES: CN(C)C(=S)SSC(=S)N(C)C [Thiram]
- Infection index ([4]; treating solution 200 mg/L): 29.0 ± 1.9%
- Infection index ([4]; treating solution 400 mg/L): 31.4 ± 0.9%
- Infection index ([4]; treating solution 600 mg/L): 29.2 ± 1.0%

SMILES: CCC(C)CCCCCCC(=O)O[C@@H]1C(CO[C@H]2OC(CO)[C@H](O)C(O)C2O)O[C@H](O[C@H]2OC(COC(C)=O)[C@@H](O)C(O)C2O)C(OC(=O)CCC(C)CC)C1OC(=O)C(C)CC (single isomer, unassigned) [Compound 5, 6-O-β-L-mannosyl-3-O-(2-methylbutyryl)-4-O-(8-methyldecanoyl)-2-O-(4-methylhexanoyl)-6′-O-acetyltrehalose]
- Zone of inhibition (Rhizoctonia solani): 12 mm
- Zone of inhibition (Curvularia lunata): 16 mm
- Zone of inhibition (Alternaria solani): 10 mm
- Zone of inhibition (Fusarium oxysporium): 8 mm
- Zone of inhibition [1]: 8 mm
- Zone of inhibition [2]: 8 mm
- Zone of inhibition (Penicillium italicum): 14 mm
- Zone of inhibition [3]: 15 mm
- Zone of inhibition (Helminthosporium maydis): 18 mm
- Zone of inhibition (Ustilaginoidea virens): 16 mm
- Zone of inhibition (Botrytis cinerea): 9 mm
- Zone of inhibition (Peronophythora litchii): 10 mm

SMILES: CCCCCCCC(=O)O[C@@H]1C(CO[C@H]2OC(CO)[C@H](O)[C@H](O)C2O)O[C@H](O[C@H]2OC(CO)[C@@H](O)[C@H](O)C2O)C(OC(=O)CCC(C)CC)[C@H]1OC(=O)C(C)CC (stereo partly drawn) [Compound 4]
- Zone of inhibition (Rhizoctonia solani): 18 mm
- Zone of inhibition (Curvularia lunata): 15 mm
- Zone of inhibition (Alternaria solani): 12 mm
- Zone of inhibition (Fusarium oxysporium): 10 mm
- Zone of inhibition [1]: 10 mm
- Zone of inhibition [2]: 14 mm
- Zone of inhibition (Penicillium italicum): 18 mm
- Zone of inhibition [3]: 12 mm
- Zone of inhibition (Helminthosporium maydis): 18 mm
- Zone of inhibition (Ustilaginoidea virens): 20 mm
- Zone of inhibition (Botrytis cinerea): 10 mm
- Zone of inhibition (Peronophythora litchii): 12 mm

SMILES: CCCCCCCCCC(=O)O[C@@H]1C(CO[C@H]2OC(CO)[C@H](O)[C@H](O)C2O)O[C@H](O[C@H]2OC(CO)[C@@H](O)[C@H](O)C2O)C(OC(=O)CCC(C)CC)[C@H]1OC(=O)C(C)CC (stereo partly drawn) [Compound 2, 4-O-decanoyl-6-O-β-L-mannosyl-3-O-(2-methylbutyryl)-2-O-(4-methylhexanoyl)trehalose]
- Zone of inhibition (Rhizoctonia solani): 16 mm
- Zone of inhibition (Curvularia lunata): 15 mm
- Zone of inhibition (Alternaria solani): 14 mm
- Zone of inhibition (Fusarium oxysporium): 12 mm
- Zone of inhibition [1]: 14 mm
- Zone of inhibition [2]: 10 mm
- Zone of inhibition (Penicillium italicum): 22 mm
- Zone of inhibition [3]: 15 mm
- Zone of inhibition (Helminthosporium maydis): 18 mm
- Zone of inhibition (Ustilaginoidea virens): 20 mm
- Zone of inhibition (Botrytis cinerea): 14 mm
- Zone of inhibition (Peronophythora litchii): 12 mm
